One experiment has as its target T1, BS69MYND (Mus musculus, UniProt Q8R5C8).
T1 construct: GST (N, cleaved yes); made in house; host or cells: E. coli BL21 (DE3) RIL
T1 sequence (Q8R5C8 556-602): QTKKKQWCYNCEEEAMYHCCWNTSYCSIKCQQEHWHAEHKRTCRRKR
The experiment can be described thus: ITC binding to BS69MYND wild type. Particulars: EBNA2_435–445, peptide titrated into BS69MYND, 5°C, 20 mM Tris-HCl pH 7.5, 100 mM NaCl, 2 mM DTT, one-site fitting, read-out: dissociation constant (K d). From the text: (§1) The DNA sequence encoding residues 440–562 (BS69CC-MYND) of mouse BS69/ZMYND11 was inserted into a modified PRSF-duet vector (Novagen), in which the BS69 fragments are separated from the preceding His6-SUMO tag by a ubiquitin-like protein (ULP1) cleavage site; and the DNA sequence encoding BS69 516–562 (BS69MYND) was inserted into a pGEX-6P-1 vector (GE Healthcare), preceded by a GST tag and a PreScission protease cleavage site. Note that the amino acid sequences of both fragments are identical to the corresponding regions of human BS69. The BS69MYND mutants were constructed by site-directed mutagenesis and confirmed by DNA sequencing. The plasmid was then transformed into BL21 (DE3) RIL cell strain for overexpression. The bacterial cells were grown at 37°C and induced by 0.4 mM isopropyl β-d-1-thiogalactopyranoside (IPTG) when the cells density reached an optical density (OD600) of 0.6. After induction, the cells continued to grow at 20°C for overnight. […]
(§2) The EBNA2_381–389 peptide with an additional Gly-Tyr dipeptide at the C-terminus (NH2-SMPSLEPVLGY-CONH2), the EBNA2_435–445 peptide, and the EBNA2_381–445 peptide were used for ITC assays. […] The ITC data was analyzed with the Origin 7.0 software using a one-site fitting model.

For the next experiment, the target named is T2, BS69CC-MYND (Mus musculus, UniProt Q8R5C8).
T2 construct: His6-SUMO (N, cleaved yes); made in house; host or cells: E. coli BL21 (DE3) RIL
T2 sequence (Q8R5C8 480-602): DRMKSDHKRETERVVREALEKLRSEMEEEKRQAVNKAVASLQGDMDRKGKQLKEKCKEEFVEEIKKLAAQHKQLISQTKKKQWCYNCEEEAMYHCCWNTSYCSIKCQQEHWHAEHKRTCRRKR
The experiment can be described thus: ITC binding to BS69CC-MYND wild type. The following applies: EBNA2_435–445, peptide titrated into BS69CC-MYND, 5°C, 20 mM Tris-HCl pH 7.5, 100 mM NaCl, 2 mM DTT, one-site fitting, read-out: dissociation constant (K d).
Description: as §1, §2

A further experiment deals with BS69CC-MYND Q546A. The experiment can be described thus: ITC binding to BS69CC-MYND Q546A. Also on record: species or system mouse. Particulars: S1D Fig; ITC parameters could not be reliably determined.
Description: as §1, §2

The test system of a further experiment is BS69MYND Q546A. The experiment can be described thus: ITC binding to BS69MYND Q546A. Also on record: species or system mouse.
Description: as §1, §2

A further experiment concerns BS69CC-MYND Q546A/W550A. The experiment can be described thus: ITC binding to BS69CC-MYND Q546A/W550A. Also on record: species or system mouse. The following applies: S1E Fig; ITC parameters could not be reliably determined.
Description: as §1, §2

A further experiment concerns the target T3, BS69MYND Y532A (Mus musculus, UniProt Q8R5C8, Y572A).
T3 construct: GST (N, cleaved yes); made in house; host or cells: E. coli BL21 (DE3) RIL
T3 sequence (Q8R5C8 556-602 Y572A): T1 sequence (Q8R5C8 556-602) with Y17A
The experiment can be described thus: ITC binding to BS69MYND Y532A. The following applies: versus BS69MYND wild type.
Description: as §1, §2

The next experiment concerns the target T4, BS69MYND R560A (Mus musculus, UniProt Q8R5C8, R600A).
T4 construct: GST (N, cleaved yes); made in house; host or cells: E. coli BL21 (DE3) RIL
T4 sequence (Q8R5C8 556-602 R600A): T1 sequence (Q8R5C8 556-602) with R45A
The experiment can be described thus: ITC binding to BS69MYND R560A. Particulars: versus BS69MYND wild type.
Description: as §1, §2

The test system of the next experiment is BS69MYND W550A. The experiment can be described thus: ITC binding to BS69MYND W550A. Also on record: species or system mouse. Particulars: mutation W550A, EBNA2_381–389 peptide used with additional C-terminal Gly-Tyr.
Description: as §1, §2

Positions count from the first letter of the chain named. Ends that are not written are not given here.

On to EAPILFPDDWY-NH2 [EBNA2_435–445], for which the Kd on BS69MYND came to 93.4 µM; at BS69CC-MYND, 34.9 µM. Moreover, the “ITC heat measurements with BS69CC-MYND Q546A” value in the experiment with BS69CC-MYND Q546A is “significantly lower than those of Fig 2H”. In the experiment with BS69MYND Q546A (BS69MYND Q546A), the “effect of Q546A on binding affinity of BS69MYND-EBNA2_435–445 complex” value is on record as “substantially decreases”. For the same substance, in the experiment on BS69CC-MYND Q546A/W550A, the “ITC heat measurements with BS69CC-MYND Q546A/W550A” value was “significantly lower than those of Fig 2H”.

As for H-SMPSLEPVLGY-NH2 [EBNA2_381–389], the “decrease of BS69MYND-EBNA2_381–389 binding by mutation Y532A” value on BS69MYND Y532A is reported as “about 3 fold”. Also, the “interaction with BS69MYND Q546A” value in the experiment on BS69MYND Q546A (mutation Q546A, EBNA2_381–389 peptide used with additional C-terminal Gly-Tyr) is “largely abolished the interaction”. For the same substance, the “decrease of BS69MYND-EBNA2_381–389 binding by mutation R560A” value on BS69MYND R560A was ~10 fold. The “interaction with BS69MYND W550A” value with BS69MYND W550A is reported as “largely abolished the interaction”.

(Values after paper PMC4742278, “BS69/ZMYND11 C-Terminal Domains Bind and Inhibit EBNA2” (PLoS Pathogens, 2016).)
